Measurements published in US20250249003A1, “COMBINATIONS OF KRAS G12D INHIBITORS WITH IRINOTECAN AND RELATED METHODS OF TREATMENT” (MIRATI THERAPEUTICS, INC., priority 2021, published 2025).
Structures can show the parent of a compound that is named as a salt.

Legend:
CES2 = target: T1, CES2 (Homo sapiens, UniProt O00748); conditions: higher affinity than CES1; cited from earlier work
T1 sequence (O00748 27-559): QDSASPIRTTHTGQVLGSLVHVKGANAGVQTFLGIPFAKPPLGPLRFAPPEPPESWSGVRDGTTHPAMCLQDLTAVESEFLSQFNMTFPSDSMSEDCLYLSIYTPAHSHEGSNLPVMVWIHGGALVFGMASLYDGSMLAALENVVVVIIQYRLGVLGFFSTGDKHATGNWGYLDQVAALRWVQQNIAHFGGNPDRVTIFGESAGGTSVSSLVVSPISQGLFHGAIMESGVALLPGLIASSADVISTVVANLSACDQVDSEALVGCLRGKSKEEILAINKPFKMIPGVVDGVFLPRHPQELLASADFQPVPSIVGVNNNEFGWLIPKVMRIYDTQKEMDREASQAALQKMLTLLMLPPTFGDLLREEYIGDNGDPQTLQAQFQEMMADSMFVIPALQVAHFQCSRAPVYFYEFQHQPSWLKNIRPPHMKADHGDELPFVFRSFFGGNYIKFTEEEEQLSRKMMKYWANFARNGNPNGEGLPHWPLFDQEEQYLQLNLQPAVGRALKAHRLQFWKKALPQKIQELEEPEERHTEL

[1] = cited from earlier work
[2] = target: butyrylcholinesterase (hBChE) (Homo sapiens, UniProt P06276); conditions: higher activity than CES; cited from earlier work
Panc 02.03 cells = assay: Panc 02.03 pancreatic cancer xenograft, average tumor volumes in nude/nude mice; format: in vivo; conditions: single agent, 30 mg/kg i.p. BID 2x/week; day 22
Procedure: Immunocompromised nude/nude mice are inoculated in the right hind flank with cells harboring a KRas G12D mutation. […] The first group is administered vehicle only. […] Tumor volumes are measured using a caliper every two-three days and tumor volumes are calculated by the formula: […].

butyrylcholinesterase (hBChE), sequence (P06276 29-602): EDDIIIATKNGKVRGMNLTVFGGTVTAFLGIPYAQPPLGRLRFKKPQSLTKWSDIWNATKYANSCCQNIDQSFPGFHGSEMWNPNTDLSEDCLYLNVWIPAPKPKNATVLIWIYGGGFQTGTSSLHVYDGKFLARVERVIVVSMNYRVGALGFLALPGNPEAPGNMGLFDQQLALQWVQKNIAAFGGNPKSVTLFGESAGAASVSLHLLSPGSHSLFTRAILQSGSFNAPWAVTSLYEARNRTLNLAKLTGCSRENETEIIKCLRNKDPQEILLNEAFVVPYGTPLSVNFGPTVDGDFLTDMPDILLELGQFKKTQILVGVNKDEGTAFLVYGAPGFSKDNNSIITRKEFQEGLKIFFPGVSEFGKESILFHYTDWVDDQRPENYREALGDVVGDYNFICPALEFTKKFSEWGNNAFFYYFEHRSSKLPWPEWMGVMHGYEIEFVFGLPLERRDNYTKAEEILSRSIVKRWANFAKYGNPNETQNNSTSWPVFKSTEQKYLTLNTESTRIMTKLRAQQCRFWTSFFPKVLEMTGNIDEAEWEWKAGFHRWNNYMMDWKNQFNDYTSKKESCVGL

Compound: CCc1c2c(nc3ccc(OC(=O)N4CCC(N5CCCCC5)CC4)cc13)-c1cc3c(c(=O)n1C2)COC(=O)[C@]3(O)CC [Irinotecan, (S)-4,11-diethyl-3,4,12,14-tetrahydro-4-hydroxy-3,14-dioxo-1H-pyrano[3′,4′:6,7]indolizino[1,2-β]quinolin-9-yl ester[1,4′-bipiperidine]-1′-carboxylic acid trihydrate monohydrochloride]
- affinity for irinotecan, CES2 relative to CES1 (CES2): 12.5 fold
- fraction of pro-drug hydrolyzed into active metabolite SN-38 ([1]; in vivo): 2-5%
- activity for irinotecan, butyrylcholinesterase relative to CES [2]: 6 fold

Compound: CCc1c2c(nc3ccc(O)cc13)-c1cc3c(c(=O)n1C2)COC(=O)[C@]3(O)CC [SN-38, ethyl-10-hydroxy-camptothecin]
- time to peak plasma concentration ([1]; after infusion): ≤ 2 h
- distribution half-life ([1]; in vivo): approximately 8 min

Compound: C#Cc1c(F)ccc2cc(O)cc(-c3ncc4c(N5C[C@H]6CC[C@@H](C5)N6)nc(OC[C@@]56CCCN5C[C@H](F)C6)nc4c3F)c12 [MRTX1133, 4-(4-((1R,5S)-3,8-diazabicyclo[3.2.1]octan-3-yl)-8-fluoro-2-(((2R,7aS)-2-fluorohexahydro-1Hpyrrolizin-7a-yl)methoxy)pyrido[4,3-d]pyrimidin-7-yl)-5-ethynyl-6-fluoronaphthalen-2-ol]
- tumor growth (Panc 02.03 cells): 72%
